# Measurements from patent EP3760291B1 (Stellenbosch University, priority 2019, dated 2021).
# Key:
# [1] = Partitioning of resveratrol from biomass (grape pomace) in polymer-salt (PEG-salt) aqueous two-phase system; type: physicochemical
# Description: The partitioning of the polyphenolic biomolecule can be quantified using parameters such as the partition coefficient (K) and the yield (Y). The partition coefficient reflects the extent of separation of the polyphenolic compound into the polymer phase. It is defined as the ratio of […]. Partition coefficients of more than 1 indicate a higher concentration of the specific molecule in the top phase. The partition coefficient (K) is calculated with equation 5 in which cT is the concentration of the molecule in the top phase and CB is the concentration of the molecule in the bottom phase. K = (CT)/(CB) [formula]
# Polymer-salt aqueous two-phase systems with PEG of different molecular weights were prepared using PEG 400 (Mw =400 g/mol), PEG 1000 (Mw =1000 g/mol), PEG 4000 (Mw =4000 g/mol), PEG 8000 (Mw =8000 g/mol), and PEG 10000 (Mw =10 000 g/mol).
# Two different ATP systems with different polymer and salt concentrations were investigated. System A contains 11 wt% PEG and 26 wt% ammonium sulphate and system B contains 13 wt% PEG and 13 wt% ammonium sulphate. Table 2. Quantities of materials used to extract resveratrol in systems A and B
# 20 ml pomace was added to a polymer-salt ATP systems comprising 20 ml water, 5 g PEG 8000 (11 wt%) and 2.5 g (7 wt%), 5 g (13 wt%), 8 g (19 wt%) and 12 g (26 wt%) ammonium salt, respectively.
# 20 ml pomace was added to a polymer-salt ATP systems comprising 11 wt% PEG 8000 and 26 wt% tartrate, citrate, sulphate and phosphate salt solutions (20 ml water), respectively. The partition coefficient and percentage extraction of resveratrol to the PEG top phase was determined for each of the different types of salts.
# The bottom phase of the ATPS (consisting of the salt solution) therefore only contained trace amounts of resveratrol, with the remaining resveratrol still contained in the biomass. It was therefore assumed that within the bottom phases exiting the polymer-salt ATPS reactor, that the remaining resveratrol that was not extracted would be contained within the raw biomass of grape pomace and canes, and not in the salt solution.
# [2] = as above; type: physicochemical; conditions: about 10% (w/w) PEG 8000 and about 15% (w/w) tartrate salt; raw biomass
# [3] = water; cited from earlier work
# [4] = type: physicochemical; conditions: pH 11.03
# Description: Polymer-polymer aqueous two-phase systems were prepared using maltodextrin (mdx) in combination with PEG 4000 and PEG 8000. […] Demineralised water was added to yield a net weight of 200 g of solution.
# Control/base solutions were prepared to be used as a baseline in the spectrophotometer by preparing the same solutions described above, but without resveratrol.
# The aqueous two-phase systems were formed by continuously stirring the solutions using a magnetic stirrer for 30 minutes. […] In both the extraction solution and in the base solution two distinct phases were formed. 1 ml of the bottom phase of the extraction solution was separated from the system using a pipette tapped into an Erlenmeyer flask and 1 ml of the bottom phase of the blank solution was poured into a separate Erlenmeyer flask. The solutions were diluted by adding 50 ml of demineralised water to each.
# Cuvettes containing the base solution were placed in the spectrophotometer and the system baselined. One of the cuvettes was then removed, rinsed with the diluted top phase of the extraction solution, and filled with the solution. […] The absorbance at the peak was then used to quantify the resveratrol content.
# The resveratrol content of the top phase was quantified using the same methodology as for the bottom phase, using the top phase of the base solution to baseline the spectrophotometer. […]
smiles,measurement,setting,value
Oc1ccc(C=Cc2cc(O)cc(O)c2)cc1 [resveratrol],Partition Coefficient,"[1]; 11 wt% PEG 8000, Ammonium sulphate, 25,5 wt% salt, to PEG top phase",351
same,Partition Coefficient,"[1]; 11 wt% PEG 8000, Potassium hydrogen phosphate trihydrate, 25,5 wt% salt, to PEG top phase",218
same,Partition Coefficient,"[1]; 11 wt% PEG 8000, Potassium sodium tartrate tetrahydrate, 25,5 wt% salt, to PEG top phase",177
same,Partition Coefficient,"[1]; 11 wt% PEG 8000, Tri-sodium citrate dihydrate, 25,5 wt% salt, to PEG top phase",79
same,Partition Coefficient,"[1]; PEG 8000 (11 wt%), 7 wt% ammonium sulphate, to PEG top phase",78
same,Partition Coefficient,"[1]; PEG 8000 (11 wt%), 13 wt% ammonium sulphate, to PEG top phase",242
same,Partition Coefficient,"[1]; PEG 8000 (11 wt%), 19 wt% ammonium sulphate, to PEG top phase",334
same,Partition Coefficient,"[1]; PEG 8000 (11 wt%), 26 wt% ammonium sulphate, to PEG top phase",351
same,Partition Coefficient,"[1]; System A: 11 wt% PEG, 26 wt% ammonium sulphate, PEG 400, to PEG top phase",164
same,Partition Coefficient,"[1]; System A: 11 wt% PEG, 26 wt% ammonium sulphate, PEG 1000, to PEG top phase",177
same,Partition Coefficient,"[1]; System A: 11 wt% PEG, 26 wt% ammonium sulphate, PEG 4000, to PEG top phase",341
same,Partition Coefficient,"[1]; System A: 11 wt% PEG, 26 wt% ammonium sulphate, PEG 8000, to PEG top phase",351
same,Partition Coefficient,"[1]; System A: 11 wt% PEG, 26 wt% ammonium sulphate, PEG 10000, to PEG top phase",174
same,Partition Coefficient,"[1]; System B: 13 wt% PEG, 13 wt% ammonium sulphate, PEG 4000, to PEG top phase",33
same,Partition Coefficient,"[1]; System B: 13 wt% PEG, 13 wt% ammonium sulphate, PEG 8000, to PEG top phase",242
same,Partition Coefficient,"[1]; System B: 13 wt% PEG, 13 wt% ammonium sulphate, PEG 10000, to PEG top phase",200
same,resveratrol partitioning to the top phase,[2],99.6%
same,aqueous solubility,[3],3 mg/100 ml
same,partition coefficient of the system,[4],1.36
